Where a SMILES comes first, the peptide text is derived from it. The star is where a group is joined. Bn = c1ccc(C*)cc1
Tests used:
[1] = biological target: Wnt-responsive promoter (TCF/LEF); assay: Wnt-dependent luciferase reporter assay; assay type: cell-based, murine
Procedure, shortened: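 Murine 3T3 fibroblasts carrying a TCF/LEF-driven luciferase reporter, stimulated with Wnt3a in the presence of increasing peptide concentrations or vehicle. Luminescence inhibition gave EC50 values in uM.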

β-catenin = biological target: T1, β-catenin (Homo sapiens, UniProt P35222); assay: KD50 measurement using competitive fluorescence polarization (FP) with labelled TCF4; assay type: binding; settings: fluorescence polarization, β-catenin; for Kd: read-out: β-Cat FP KD
T1 sequence (P35222 1-781): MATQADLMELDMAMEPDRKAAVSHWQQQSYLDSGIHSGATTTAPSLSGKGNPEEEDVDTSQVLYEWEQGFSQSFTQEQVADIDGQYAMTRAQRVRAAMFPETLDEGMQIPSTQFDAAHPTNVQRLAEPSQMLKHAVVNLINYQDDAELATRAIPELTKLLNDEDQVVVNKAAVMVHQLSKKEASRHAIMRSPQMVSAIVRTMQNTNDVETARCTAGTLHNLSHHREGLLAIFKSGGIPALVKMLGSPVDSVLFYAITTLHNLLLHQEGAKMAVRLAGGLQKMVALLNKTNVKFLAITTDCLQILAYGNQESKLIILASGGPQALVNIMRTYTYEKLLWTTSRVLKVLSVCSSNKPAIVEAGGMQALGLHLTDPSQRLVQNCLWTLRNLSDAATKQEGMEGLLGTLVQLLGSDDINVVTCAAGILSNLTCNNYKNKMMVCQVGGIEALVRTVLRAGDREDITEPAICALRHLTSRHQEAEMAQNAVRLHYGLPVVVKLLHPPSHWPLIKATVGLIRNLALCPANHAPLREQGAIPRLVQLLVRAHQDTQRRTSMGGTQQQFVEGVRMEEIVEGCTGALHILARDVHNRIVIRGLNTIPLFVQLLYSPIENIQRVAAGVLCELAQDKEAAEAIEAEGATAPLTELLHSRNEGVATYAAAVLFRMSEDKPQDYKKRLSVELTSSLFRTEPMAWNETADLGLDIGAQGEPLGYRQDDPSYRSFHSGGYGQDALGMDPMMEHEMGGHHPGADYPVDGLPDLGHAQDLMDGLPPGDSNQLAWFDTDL
Procedure, shortened: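 Tracer: labelled TCF4, 5 nM; protein 100 nM; RT incubation. Competitor dilution series 10 nM–30 uM. FP read ex 470 / em 520 nm. n = 3.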

[2] = % Viability non-Wnt responsive cells

Row | SMILES | EC50 [1] [µM] | β-Cat FP Hill slope (β-catenin) | Kd (β-catenin) [µM] | viability [2] [%]
1 | CC[C@H](C)[C@H](NC(=O)[C@H](CC(C)C)NC(=O)[C@@H](NC(=O)C(C)(Cc1c[nH]c2ccccc12)NC(=O)[C@@H](N)CCSC)[C@@H](C)CC)C(=O)N[C@@H](CO)C(=O)N[C@@H](Cc1ccccc1)C(=O)N[C@@H](Cc1c[nH]c2ccccc12)C(=O)NCC(=O)O (stereo partly drawn) [compound 134] (HELM PEPTIDE1{M.[CC(Cc1c[nH]c2ccccc12)(N[*:1])C(=O)[*:2]].I.L.I.S.F.W.G}$$$$V2.0) | > 30 | 1.47 | 1 to 10 | 97.9
2 | CC[C@H](C)[C@H](NC(=O)[C@H](CC(C)C)NC(=O)[C@H](Cc1ccccc1)NC(=O)[C@H](Cc1c[nH]c2ccccc12)NC(=O)[C@@H](N)CCSC)C(=O)N[C@@H](CCC(N)=O)C(=O)N[C@@H](Cc1ccccc1)C(=O)N[C@@H](Cc1ccc(O)cc1)C(=O)NCC(=O)O [compound 149] (H-MWFLIQFYG-OH) | 7.5 to 15 | 0.75 | 0.4 to 1 | 104
3 | CC[C@H](C)[C@H](NC(=O)[C@H](CC(C)C)NC(=O)[C@H](Cc1ccccc1)NC(=O)[C@H](Cc1c[nH]c2ccccc12)NC(=O)[C@H](CCSC)NC(=O)[C@H](CCCNC(=N)N)NC(=O)[C@H](CO)NC(=O)[C@@H](N)Cc1c[nH]cn1)C(=O)N[C@@H](CO)C(=O)N[C@@H](Cc1ccccc1)C(=O)N[C@@H](Cc1c[nH]c2ccccc12)C(N)=O [compound 89] (H-HSRMWFLISFW-NH2) | > 30 | – | > 30 | 107
4 | CC[C@H](C)[C@@H]1NC(=O)[C@H](CC(C)C)NC(=O)[C@H](Cc2ccccc2)NC(=O)[C@H](Cc2c[nH]c3ccccc23)NC(=O)[C@H](CCSC)NC(=O)[C@@H](N)CC(=O)NCCCC[C@@H](C(=O)NCC(=O)O)NC(=O)[C@H](Cc2c[nH]c3ccccc23)NC(=O)[C@H](Cc2ccccc2)NC(=O)[C@H](CS)NC1=O [compound 177] (HELM PEPTIDE1{D.M.W.F.L.I.C.F.W.K.G}$PEPTIDE1,PEPTIDE1,1:R3-10:R3$$$V2.0) | 7.5 to 15 | – | > 30 | 98.6
5 | CC[C@H](C)[C@H](NC(=O)[C@H](CC(C)C)NC(=O)[C@H](Cc1ccccc1)NC(=O)[C@H](Cc1c[nH]c2ccccc12)NC(=O)[C@H](Cc1c[nH]cn1)NC(=O)[C@H](CCCNC(=N)N)NC(=O)[C@H](CO)NC(=O)[C@@H](N)CCCCN)C(=O)N[C@@H](CO)C(=O)N[C@@H](Cc1ccccc1)C(=O)N[C@@H](Cc1c[nH]c2ccccc12)C(N)=O [compound 94] (H-KSRHWFLISFW-NH2) | > 30 | – | > 30 | 118
6 | CC[C@H](C)[C@H](NC(=O)[C@H](CC(C)C)NC(=O)[C@H](Cc1ccccc1)NC(=O)[C@H](Cc1c[nH]c2ccccc12)NC(=O)[C@@H](NC(=O)[C@H](CCCNC(=N)N)NC(=O)[C@H](CO)NC(=O)[C@@H](N)CCSC)[C@@H](C)O)C(=O)N[C@@H](CO)C(=O)N[C@@H](Cc1ccccc1)C(=O)N[C@@H](Cc1c[nH]c2ccccc12)C(N)=O [compound 76] (H-MSRTWFLISFW-NH2) | > 30 | – | > 30 | 105
7 | CC[C@H](C)[C@@H]1NC(=O)[C@H](CC(C)C)NC(=O)[C@H]([C@@H](C)CC)NC(=O)[C@H](Cc2c[nH]c3ccccc23)NC(=O)[C@@H](N)CCCCNC(=O)C[C@@H](C(=O)O)NC(=O)[C@H](Cc2c[nH]c3ccccc23)NC(=O)[C@H](Cc2ccccc2)NC(=O)[C@H](CS)NC1=O [compound 120] (HELM PEPTIDE1{K.W.I.L.I.C.F.W.D}$PEPTIDE1,PEPTIDE1,1:R3-9:R3$$$V2.0) | < 7.5 | – | > 30 | 123
8 | CC[C@H](C)[C@@H]1NC(=O)[C@H](CC(C)C)NC(=O)[C@H](Cc2ccccc2)NC(=O)[C@H](Cc2c[nH]c3ccccc23)NC(=O)[C@H](CCSC)NC(=O)CCCCCNC(=O)C[C@@H](C(=O)O)NC(=O)[C@H](Cc2c[nH]c3ccccc23)NC(=O)[C@H](Cc2ccccc2)NC(=O)[C@H](CS)NC1=O [compound 189] (HELM PEPTIDE1{[O=C(CCCCCN[*:1])[*:2]].M.W.F.L.I.C.F.W.D}$PEPTIDE1,PEPTIDE1,1:R1-10:R3$$$V2.0) | < 7.5 | 1.69 | 0.4 to 1 | 99.5
9 | CC[C@H](C)[C@@H]1NC(=O)[C@H](CC(C)C)NC(=O)[C@H](Cc2ccccc2)NC(=O)[C@H](Cc2c[nH]c3ccccc23)NC(=O)[C@@H](NC(C)=O)CCCCNC(=O)C[C@@H](C(=O)O)NC(=O)[C@H](Cc2c[nH]c3ccccc23)NC(=O)[C@H](C)NC(=O)[C@H](CS)NC1=O [compound 169] (HELM PEPTIDE1{[ac].K.W.F.L.I.C.A.W.D}$PEPTIDE1,PEPTIDE1,2:R3-10:R3$$$V2.0) | < 7.5 | 0.7 | 1 to 10 | 93.5
10 | CC[C@H](C)[C@H](NC(=O)[C@H](CC(C)C)NC(=O)[C@H](CC(C)C)NC(=O)[C@H](Cc1c[nH]c2ccccc12)NC(=O)[C@H](CCSC)NC(C)=O)C(=O)N[C@@H](CO)C(=O)N[C@@H](Cc1ccccc1)C(=O)N[C@@H](Cc1c[nH]c2ccccc12)C(=O)NCC(=O)O [compound 218] (Ac-MWLLISFWG-OH) | < 7.5 | 1.85 | < 0.4 | 90.8
11 | CC[C@H](C)[C@H](NC(=O)[C@H](CC(C)C)NC(=O)[C@H](Cc1ccccc1)NC(=O)[C@H](Cc1c[nH]c2ccccc12)NC(=O)[C@H](Cc1c[nH]cn1)NC(=O)[C@H](CCCNC(=N)N)NC(=O)[C@H](CO)NC(=O)[C@@H](N)Cc1c[nH]c2ccccc12)C(=O)N[C@@H](CO)C(=O)N[C@@H](Cc1ccccc1)C(=O)N[C@@H](Cc1c[nH]c2ccccc12)C(N)=O [compound 91] (H-WSRHWFLISFW-NH2) | > 30 | – | > 30 | 84.6
12 | CC[C@H](C)[C@H](NC(=O)[C@H](CC(C)C)NC(=O)[C@H](Cc1ccccc1)NC(=O)[C@H](Cc1c[nH]c2ccccc12)NC(=O)[C@@H](N)CCSC)C(=O)N[C@@H](CO)C(=O)N[C@@H](Cc1ccccc1)C(=O)N[C@@H](Cc1c[nH]c2ccccc12)C(N)=O [compound 107] (H-MWFLISFW-NH2) | 7.5 to 15 | 0.7 | 1 to 10 | 100
13 | CC[C@H](C)[C@H](NC(=O)[C@H](CC(C)C)NC(=O)[C@H](Cc1ccccc1)NC(=O)[C@H](Cc1c[nH]c2ccccc12)NC(=O)[C@H](CCSC)NC(=O)[C@H](CCCNC(=N)N)NC(=O)[C@H](CO)NC(=O)[C@@H](N)CCSC)C(=O)N[C@@H](CO)C(=O)N[C@@H](Cc1ccccc1)C(=O)N[C@@H](Cc1c[nH]c2ccccc12)C(=O)NCC(=O)O [compound 41] (H-MSRMWFLISFWG-OH) | < 7.5 | – | > 30 | 96.1
14 | CC[C@H](C)[C@H](NC(=O)[C@H](CC(C)C)NC(=O)[C@H](Cc1ccccc1)NC(=O)[C@@H](N)Cc1c[nH]c2ccccc12)C(=O)N[C@@H](CO)C(=O)N[C@@H](COCc1ccccc1)C(=O)N[C@@H](Cc1c[nH]c2ccccc12)C(=O)O [compound 101] (H-WFLISS(Bn)W-OH) | 7.5 to 15 | 3 | 1 to 10 | 106
15 | CC[C@H](C)[C@H](NC(=O)[C@H](CC(C)C)NC(=O)[C@H](Cc1ccccc1)NC(=O)[C@H](Cc1c[nH]c2ccccc12)NC(=O)[C@H](CCSC)NC(=O)[C@H](CCCNC(=N)N)NC(=O)[C@@H](NC(=O)[C@@H](N)CCSC)[C@@H](C)O)C(=O)N[C@@H](CO)C(=O)N[C@@H](Cc1ccccc1)C(=O)N[C@@H](Cc1c[nH]c2ccccc12)C(N)=O [compound 73] (H-MTRMWFLISFW-NH2) | > 30 | – | > 30 | 97.3
16 | CC[C@H](C)[C@H](NC(=O)[C@H](CC(C)C)NC(=O)[C@H](Cc1ccccc1)NC(=O)[C@@H](N)Cc1c[nH]c2ccccc12)C(=O)N[C@@H](CO)C(=O)N[C@@H](Cc1ccccc1)C(=O)N[C@@H](Cc1c[nH]c2ccccc12)C(N)=O [compound 98] (H-WFLISFW-NH2) | > 30 | 1.02 | 1 to 10 | 96
17 | CC[C@H](C)[C@H](NC(=O)[C@H](CC(C)C)NC(=O)[C@H](Cc1ccccc1)NC(=O)[C@H](Cc1c[nH]c2ccccc12)NC(=O)[C@H](CCSC)NC(=O)[C@H](CCCNC(=N)N)NC(=O)[C@H](CO)NC(=O)[C@@H](N)CCSC)C(=O)N[C@@H](CO)C(=O)N[C@@H](Cc1ccccc1)C(=O)N[C@@H](Cc1c[nH]c2ccccc12)C(=O)N[C@@H](CCC(=O)O)C(=O)NCC(=O)O [compound 57] (H-MSRMWFLISFWEG-OH) | < 7.5 | 0.7 | 1 to 10 | 104

— patent US12441768B2, “Compositions and methods for treating endometriosis” (EndoMet Biosciences, Inc., priority 2018, dated 2025)
